# Assays:
# [1] = Radioactivity distribution in blood components after i.v. injection in healthy mice; type: in vivo; conditions: for Proportion of intact tracer in plasma: radio-HPLC
# Method: To measure the radioactivity binding to blood cells, the blood obtained by cardiac puncture was placed into a lithium heparin tube, mixed according to the manufacturer’s instructions, and placed on ice. The blood sample was centrifuged at 4 °C for 5 min at 2118 × g. The plasma was separated by pipetting, and blood cells and plasma radioactivities were measured with a 1480 Wizard gamma counter (PerkinElmer/Wallac, Turku, Finland).
# To determine the radioactivity portion bound to plasma proteins, plasma was mixed with an equal volume of acetonitrile and centrifuged at 14000 × g for 2 min at r.t. The radioactivity of both the supernatant and the protein pellet was measured with Wizard.
# To determine the portion of intact tracer in plasma, a sample of deproteinized plasma supernatant was diluted with 0.1% TFA in water and analyzed with radio-HPLC.[60]
# [2] = Ex vivo biodistribution in healthy Balb/cAnNrj mice
# Method: (§1) Animal studies were approved by the national Project Authorization Board in Finland (licenses: ESAVI/12132/04.10.07/2017 and ESAVI/8648/2020) and were carried out in compliance with EU Directive 2010/EU/63 on the protection of animals used for scientific purposes. Healthy female Balb/cAnNrj mice (9–14 weeks old, 19 weeks old for fasting studies) were used for experiments with [^18F]FDG-Tz. Female Rj:Athymic-Foxn1^nu/nu mice (8–10 weeks old) bearing subcutaneous HER2-expressing HCC1954 tumors were used for pretargeted and control preclicked experiments with [^18F]TCO-MSNA, detailed information for the mice preparation was described earlier.[59] Animals were housed in individually ventilated cages under a 12 h light/dark cycle with ad libitum access to water and food unless otherwise stated. Animals were anesthetized with isoflurane (induction 4–5%, maintenance 1.5–2.5%, 0.4 L/min O2) and sacrificed by cervical dislocation after applying cardiac puncture for blood collection.
# For [^18F]FDG-Tz ex vivo evaluation, the mice were sacrificed at 15 (n = 6), 30 (n = 4), and 60 min (n = 2) postinjection. [^18F]FDG-Tz distribution at 15 min postinjection was also studied in animals after fasting (n = 3, 4 h fasting prior to injection, water available ad libitum). Radiolabeled compound was administrated via the tail vein (1.8–11.4 MBq in 50–170 μL). For all experiments involving MSNA ex vivo measurements were performed after 60 min PET/CT imaging.
# After sacrifice, tissue samples from organs of interest were dissected and weighed. Radioactivity was measured with a gamma counter (Triathler 3″; Hidex, Turku, Finland); the percentage injected radioactivity dose per gram of tissue (%ID/g) was calculated, corrected with the remaining radioactivity in the cannula, tail, and the syringe and decay-corrected to the time of injection.
# [3] = In vivo dynamic PET/CT imaging in healthy Balb/cAnNrj mice; conditions: dynamic PET
# Method: as §1
# For in vivo [^18F]FDG-Tz studies, four mice were injected with 4.0–4.8 MBq in 50–80 μL volume via the tail vein. Animals were imaged with Molecubes β-cube (PET) and X-cube (CT) (MOLECUBES NV, Ghent, Belgium) for 60 min and reconstructed into time frames 30 × 10, 15 × 60, 4 × 300 s, and 2 × 600 s. For pretargeted experiments as well as control imaging with preclicked [^18F]TCO-MSNA, Inveon Multimodality PET/CT (Siemens Medical Solutions, Knoxville, TN, USA) was used to perform dynamic PET with 6 × 10, 4 × 60, and 11 × 300 s time frames. For pretargeted imaging, TCO-MSNA (50 μL, 2.5 nmol of TCO) was injected 20 min prior to [^18F]FDG-Tz (63 ± 17 μL) administration via the tail vein. For all experiments two animals were imaged at the same time under isoflurane anesthesia. Mice were sacrificed immediately after imaging for ex vivo evaluation.
# Image analysis was performed with Carimas software (version 2.10, Turku PET Centre, Turku, Finland). CT scans were utilized as an anatomical reference combined with the radioactivity signal from PET images. Regions of interest (ROIs) within the selected organs were defined in three dimensions. Blood pool results were obtained from the heart left ventricle cavity; tumor ROIs were drawn excluding the fluid-filled tumor core (Figure S13). Standardized uptake values (SUV) were calculated, corrected with the remaining radioactivity in the cannula, tail, and syringe, and decay-corrected to the time of injection.
# [4] = system: HER2-expressing HCC1954 tumors; experiment: PET/CT imaging (pretargeted, preclicked, tracer alone) in HCC1954 tumor-bearing mice; type: in vivo; conditions: HCC1954 tumor-bearing female mice, 60 min postinjection
# Method: as §1, with “collection. […]” for “collection.”
# Image analysis was performed with Carimas software (version 2.10, Turku PET Centre, Turku, Finland). CT scans were utilized as an anatomical reference combined with the radioactivity signal from PET images. […] Standardized uptake values (SUV) were calculated, corrected with the remaining radioactivity in the cannula, tail, and syringe, and decay-corrected to the time of injection. […]
compound,measurement,setting,value
O=C(CCON=C[C@H]([18F])[C@@H](O)[C@H](O)[C@H](O)CO)NCc1ccc(-c2nncnn2)cc1 [[^18F]FDG-Tz],Blood cell binding of radioactivity,[1]; 15 min postinjection,37.6% ± 3.0
same,Plasma protein binding of radioactivity,[1]; 15 min postinjection,9.1% ± 3.5
same,Blood cell binding of radioactivity,[1]; 60 min postinjection,58.1%
same,Plasma protein binding of radioactivity,[1]; 60 min postinjection,22.7%
same,Proportion of intact tracer in plasma,[1]; 60 min postinjection,52%
same,Proportion of intact tracer in plasma,"[1]; first time point (15 min, n = 3)",93.7% ± 5.1
same,Biodistribution difference between fasted and nonfasted animals,"[2]; 15 min postinjection, 4 h fasting",no statistically significant difference
same,Organ accumulation in awake versus isoflurane anesthetized animals,[2]; 60 min after i.v. injection,trend of lower accumulation
same,Blood radioactivity,"[2]; i.v., 60 min postinjection",0.9 ± 0.3 %ID/g
same,Brain uptake,"[2]; i.v., 60 min postinjection",0.08 ± 0.03 %ID/g
same,Gallbladder radioactivity,"[2]; i.v., 60 min postinjection",7.0 ± 0.7 %ID/g
same,Kidneys radioactivity,"[2]; i.v., 60 min postinjection",1.2 ± 0.4 %ID/g
same,Liver radioactivity,"[2]; i.v., 60 min postinjection",3.2 ± 1.0 %ID/g
same,Tibia bone radioactivity (defluorination),"[2]; i.v., 60 min postinjection",0.26 ± 0.04 %ID/g
same,Heart SUV,[3]; 0.6 min,5.06 ± 4.25 SUV
same,Blood SUV,[3]; 0.8 min,5.26 ± 2.69 SUV
same,Brain SUVpeak,[3]; 0.8 min,0.33 ± 0.20 SUV
same,Liver SUV,[3]; 4.5 min,5.63 ± 1.11 SUV
same,Blood SUV,[3]; 60 min,0.43 ± 0.06 SUV
same,Brain SUV,[3]; 60 min,0.05 ± 0.01 SUV
same,Heart SUV,[3]; 60 min,0.41 ± 0.05 SUV
same,Liver SUV,[3]; 60 min,2.00 ± 0.57 SUV
same,Tumor SUV,[4],0.16 ± 0.04 SUV

# Source: paper PMC10702189, “Tetrazine Glycoconjugate for Pretargeted Positron Emission Tomography Imaging of trans-Cyclooctene-Functionalized Molecular Spherical Nucleic Acids” (ACS Omega, 2023)
